Laboratory results published in PubChem BioAssay (NCI).
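How tested: cells in 96-well plates exposed to compound for 48 hours at five concentrations. The concentration for full growth arrest is given as TGI.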

How the values were obtained:
Assay in all cases: NCI tumour cell line growth inhibition, 48 h
[1] = system: DU-145 prostate
[2] = system: MOLT-4 leukemia
[3] = system: KM12 colon
[4] = system: HOP-92 NSCLC
[5] = system: SF-268 CNS
[6] = system: SR leukemia
[7] = system: UACC-257 melanoma
[8] = system: HT29 colon
[9] = system: CCRF-CEM leukemia
[10] = system: A549 NSCLC
[11] = system: NCI-H522 lung
[12] = system: SK-OV-3 ovarian
[13] = system: OVCAR-5 ovarian
[14] = system: A498 renal
[15] = system: LOX IMVI melanoma
[16] = system: SK-MEL-5 melanoma
[17] = system: ACHN renal
[18] = system: SNB-19 CNS
[19] = system: UO-31 renal
[20] = system: M14 melanoma
[21] = system: NCI-H23 lung
[22] = system: K-562 leukemia
[23] = system: SN12C renal
[24] = system: MDA-MB-435
[25] = system: OVCAR-3 ovarian
[26] = system: NCI-H460 lung
[27] = system: NCI/ADR-RES ovarian
[28] = system: HCC-2998 colon
[29] = system: HL-60(TB) leukemia
[30] = system: RXF 393 renal
[31] = system: UACC-62 melanoma
[32] = system: OVCAR-4 ovarian
[33] = system: TK-10 renal
[34] = system: EKVX NSCLC
[35] = system: SK-MEL-28 melanoma
[36] = system: BT-549 breast
[37] = system: COLO 205 colon
[38] = system: MALME-3M melanoma
[39] = system: T-47D breast
[40] = system: MCF7 breast
[41] = system: SF-539 CNS
[42] = system: HS 578T breast
[43] = system: HCT-116 colon
[44] = system: SF-295 CNS
[45] = system: 786-0 renal
[46] = system: CAKI-1 renal
[47] = system: HCT-15 colon
[48] = system: MDA-N
[49] = system: SNB-75 CNS
[50] = system: SW-620 colon
[51] = system: RPMI-8226 leukemia
[52] = system: MDA-MB-231 breast
[53] = system: U251 CNS
[54] = system: NCI-H226 lung
[55] = system: SK-MEL-2 melanoma
[56] = system: PC-3 prostate
[57] = system: IGROV1 ovarian
[58] = system: HOP-62 NSCLC
[59] = system: OVCAR-8 ovarian

SMILES: S=C=NC1CCC(c2cc3ccccc3s2)(N2CCCCC2)CC1 (stereo unspecified)
- TGI [1]: 4.52 µM
- TGI [2]: 1.01 µM
- TGI [3]: 3.95 µM
- TGI [4]: 3.56 µM
- TGI [5]: 4.3 µM
- TGI [6]: 2.12 µM
- TGI [7]: 3.54 µM
- TGI [8]: 3.66 µM
- TGI [9]: 2.5 µM
- TGI [10]: 11.1 µM
- TGI [11]: 3.23 µM
- TGI [12]: 4.59 µM
- TGI [13]: 3.7 µM
- TGI [14]: 5.1 µM
- TGI [15]: 3.03 µM
- TGI [16]: 2.94 µM
- TGI [17]: 3.34 µM
- TGI [18]: 7.79 µM
- TGI [19]: 3.66 µM
- TGI [20]: 4.39 µM
- TGI [21]: 3.85 µM
- TGI [22]: 1.98 µM
- TGI [23]: 3.77 µM
- TGI [24]: 3.19 µM
- TGI [25]: 4.34 µM
- TGI [26]: 3.54 µM
- TGI [27]: 5.68 µM
- TGI [28]: 3.22 µM
- TGI [29]: 3.09 µM
- TGI [30]: 3.16 µM
- TGI [31]: 3.6 µM
- TGI [32]: 3.7 µM
- TGI [33]: 3.45 µM
- TGI [34]: 4.69 µM
- TGI [35]: 3.39 µM
- TGI [36]: 6.55 µM
- TGI [37]: 3.93 µM
- TGI [38]: 3.04 µM
- TGI [39]: 25.3 µM
- TGI [40]: 5.72 µM
- TGI [41]: 3.77 µM
- TGI [42]: 4.73 µM
- TGI [43]: 3.58 µM
- TGI [44]: 7.39 µM
- TGI [45]: 3.26 µM
- TGI [46]: 3.45 µM
- TGI [47]: 3.7 µM
- TGI [48]: 3.73 µM
- TGI [49]: 4.2 µM

SMILES: O=C(O)Cc1cccc2c(=O)c3cccc([N+](=O)[O-])c3oc12
- TGI [50]: > 100 µM
- TGI [1]: > 100 µM
- TGI [2]: > 100 µM
- TGI [3]: > 100 µM
- TGI [5]: > 100 µM
- TGI [6]: > 100 µM
- TGI [51]: > 100 µM
- TGI [52]: > 100 µM
- TGI [7]: > 100 µM
- TGI [8]: > 100 µM
- TGI [9]: > 100 µM
- TGI [10]: > 100 µM
- TGI [53]: > 100 µM
- TGI [11]: > 100 µM
- TGI [12]: > 100 µM
- TGI [13]: > 100 µM
- TGI [14]: > 100 µM
- TGI [15]: > 100 µM
- TGI [16]: > 100 µM
- TGI [17]: > 100 µM
- TGI [18]: > 100 µM
- TGI [19]: > 100 µM
- TGI [20]: > 100 µM
- TGI [21]: > 100 µM
- TGI [22]: > 100 µM
- TGI [54]: > 100 µM
- TGI [55]: > 100 µM
- TGI [23]: > 100 µM
- TGI [24]: > 100 µM
- TGI [25]: > 100 µM
- TGI [26]: > 100 µM
- TGI [28]: > 100 µM
- TGI [56]: > 100 µM
- TGI [29]: > 100 µM
- TGI [30]: > 100 µM
- TGI [31]: > 100 µM
- TGI [32]: > 100 µM
- TGI [33]: > 100 µM
- TGI [34]: > 100 µM
- TGI [35]: > 100 µM
- TGI [36]: > 100 µM
- TGI [37]: > 100 µM
- TGI [38]: > 100 µM
- TGI [57]: > 100 µM
- TGI [39]: > 100 µM
- TGI [40]: > 100 µM
- TGI [41]: > 100 µM
- TGI [42]: > 100 µM
- TGI [43]: > 100 µM
- TGI [44]: > 100 µM
- TGI [58]: > 100 µM
- TGI [45]: > 100 µM
- TGI [46]: > 100 µM
- TGI [47]: > 100 µM
- TGI [59]: > 100 µM
- TGI [48]: > 100 µM
- TGI [49]: > 100 µM
